Results as given in patent publication US20100016340A1, “PHARMACEUTICAL COMPOUNDS” (Astex Therapeutics Limited, priority 2006, published 2010).
Structures can show the parent of a compound that is named as a salt.

What was measured:
PKB-PIF = target: T1, PKB-PIF (Homo sapiens, UniProt P31751); test: Measurement of PKB kinase inhibitory activity (IC50), 33P-ATP phosphocellulose filter assay; format: biochemical; details: 0.6 nM enzyme, 30 μM ATP, 25 μM AKTide-2T substrate, 20 minutes; read-out: IC50, concentration of test compound required to inhibit 50% of the PKB activity
T1 construct: made in house
Method: The inhibition of protein kinase B (PKB) activity by compounds can be determined essentially as described by Andjelkovic et al. (Mol. Cell. Biol. 19, 5061-5072 (1999)) but using a fusion protein described as PKB-PIF and described in full by Yang et al (Nature Structural Biology 9, 940-944 (2002)). […] A final concentration of 0.6 nM enzyme is used in a buffer that includes 20 mM MOPS pH 7.2, 30 μM ATP/γ^33P-ATP and 25 μM substrate. Compounds are added in DMSO solution to a final DMSO concentration of 2.5%. The reaction is allowed to proceed for 20 minutes before addition of excess orthophosphoric acid to quench activity. The reaction mixture is transferred to a phosphocellulose filter plate where the peptide binds and the unused ATP is washed away. After washing, scintillant is added and the incorporated activity measured by scintillation counting.
The % inhibition of the PKB activity is calculated and plotted in order to determine the concentration of test compound required to inhibit 50% of the PKB activity (IC50).

PKA catalytic domain = target: T2, PKA catalytic domain (Homo sapiens, UniProt P17612); test: Measurement of PKA kinase inhibitory activity (IC50), 33P-ATP filter plate assay; format: biochemical; details: 1 nM enzyme, 40 μM ATP, 20 minutes; read-out: IC50, concentration of test compound required to inhibit 50% of the PKA activity
T2 construct: using the PKA catalytic domain from Upstate Biotechnology (#14-440); purchased Upstate Biotechnology 14-440
Method: Compounds of the invention can be tested for PK inhibitory activity using the PKA catalytic domain from Upstate Biotechnology (#14-440) and the 9 residue PKA specific peptide ([…]), also from Upstate Biotechnology (#12-257), as the substrate. A final concentration of 1 nM enzyme is used in a buffer that includes 20 mM MOPS pH 7.2, 40 μM ATP/γ^33P-ATP and […] substrate. Compounds are added in dimethylsulphoxide (DMSO) solution to a final DMSO concentration of 2.5%. The reaction is allowed to proceed for 20 minutes before addition of excess orthophosphoric acid to quench activity. Unincorporated γ^33P-ATP is then separated from phosphorylated proteins on a Millipore MAPH filter plate. The plates are washed, scintillant is added and the plates are then subjected to counting on a Packard Topcount.
The % inhibition of the PKA activity is calculated and plotted in order to determine the concentration of test compound required to inhibit 50% of the PKA activity (IC50).

T1 sequence (P31751 with tags, fused parts or gaps limits assumed): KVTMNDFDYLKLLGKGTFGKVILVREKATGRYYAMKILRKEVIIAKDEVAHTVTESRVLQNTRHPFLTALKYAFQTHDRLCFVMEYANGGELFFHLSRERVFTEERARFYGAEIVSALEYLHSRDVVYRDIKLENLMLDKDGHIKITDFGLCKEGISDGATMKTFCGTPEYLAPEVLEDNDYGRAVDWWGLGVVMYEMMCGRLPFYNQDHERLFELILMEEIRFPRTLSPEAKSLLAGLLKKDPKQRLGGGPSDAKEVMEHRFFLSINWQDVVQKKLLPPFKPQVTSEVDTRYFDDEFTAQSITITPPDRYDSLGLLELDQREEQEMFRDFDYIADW

SMILES: NC1(Cc2ccc(Cl)cc2)CCN(c2ncnc3[nH]c(=O)[nH]c23)CC1 [Example 11, 6-[4-Amino-4-(4-chlorobenzyl)piperidin-1-yl]-7,9-dihydropurin-8-one]
- IC50 (PKB-PIF): < 1 µM

SMILES: NC1(C(=O)NCc2ccc(Cl)cc2F)CCN(c2ncnc3[nH]c(=O)[nH]c23)CC1 [Example 7, 4-Amino-1-(8-oxo-8,9-dihydro-7H-purin-6-yl)-piperidine-4-carboxylic acid 4-chloro-2-fluoro-benzylamide]
- IC50 (PKA catalytic domain): < 10 µM
- IC50 (PKB-PIF): < 1 µM

SMILES: NCC1(c2ccc(OC(F)(F)F)cc2)CCN(c2ncnc3[nH]c(=O)[nH]c23)CC1 [Example 10, 6-[4-Aminomethyl-4-(4-trifluoromethoxyphenyl)piperidin-1-yl]-7,9-dihydropurin-8-one]
- IC50 (PKB-PIF): < 1 µM

SMILES: NC1(C(=O)NCc2ccc(Cl)cc2)CCN(c2ncnc3[nH]c(=O)[nH]c23)CC1 [Example 6, 4-Amino-1-(8-oxo-8,9-dihydro-7H-purin-6-yl)-piperidine-4-carboxylic acid 4-chloro-benzylamide]
- IC50 (PKA catalytic domain): < 10 µM

SMILES: NC1(c2ccc(Cl)cc2)CCN(c2ncnc3[nH]c(=O)[nH]c23)CC1 [Example 12, 6-[4-Amino-4-(4-chlorophenyl)piperidin-1-yl]-7,9-dihydropurin-8-one]
- IC50 (PKA catalytic domain): < 10 µM
- IC50 (PKB-PIF): < 1 µM

SMILES: NCC1(c2cccc(-c3ccccc3)c2)CCN(c2ncnc3[nH]ccc23)CC1 [Example 4, C-[4-Biphenyl-3-yl-1-(7H-pyrrolo[2,3-d]pyrimidin-4-yl)piperidin-4-yl]methylamine]
- IC50 (PKA catalytic domain): < 10 µM
- IC50 (PKB-PIF): < 1 µM

SMILES: COc1ccc(-c2cccc(C3(CN)CCN(c4ncnc5[nH]ccc45)CC3)c2)cc1 [Example 5, C-[4-(4′-Methoxybiphenyl-3-yl)-1-(7H-pyrrolo[2,3-d]pyrimidin-4-yl)piperidin-4-yl]methylamine]
- IC50 (PKB-PIF): < 1 µM

SMILES: NC1(C(=O)NCc2ccc(Cl)c(-c3ccccc3)c2)CCN(c2ncnc3[nH]ccc23)CC1 [Example 2, 4-Amino-1-(7H-pyrrolo[2,3-d]pyrimidin-4-yl)-piperidine-4-carboxylic acid (6-chloro-biphenyl-3-ylmethyl)-amide hydrochloride]
- IC50 (PKB-PIF): < 1 µM

SMILES: CC(C)(C)c1ccc(CC2(N)CCN(c3ncnc4[nH]ncc34)CC2)cc1 [Example 13, 4-(4-tert-Butyl-benzyl)-1-(1H-pyrazolo[3,4-d]pyrimidin-4-yl)-piperidin-4-ylamine]
- IC50 (PKB-PIF): < 1 µM
